For data set [1], the system named is rats. Kind of data set: Conditioned avoidance response in rats. The class given is in vivo. As to conditions: Rattus norvegicus, read-out: ED50, inhibition of conditioned avoidance response.
The target in the next data set is T1, 5-HT-2 receptor (Rattus norvegicus, UniProt P14842).
T1 construct: from tissue; host or cells: rat frontal cortex
Kind of data set: Displacement of H-spiperone from binding sites in the rat frontal cortex. From the text:
(§1) In addition, the compound of formula I and of formula II also show good activity in in vitro binding assays involving binding to neural receptors. […] The compounds are also active at the 5-HT-IC receptor.

The next data set addresses dopamine D-2 receptor (Homo sapiens, UniProt P14416). Kind of data set: 3H-spiperone binding assay.
Text: as §1

Another data set addresses T2, 5-HT-IC receptor (Homo sapiens, UniProt P28335).
T2 sequence (P28335 33-458): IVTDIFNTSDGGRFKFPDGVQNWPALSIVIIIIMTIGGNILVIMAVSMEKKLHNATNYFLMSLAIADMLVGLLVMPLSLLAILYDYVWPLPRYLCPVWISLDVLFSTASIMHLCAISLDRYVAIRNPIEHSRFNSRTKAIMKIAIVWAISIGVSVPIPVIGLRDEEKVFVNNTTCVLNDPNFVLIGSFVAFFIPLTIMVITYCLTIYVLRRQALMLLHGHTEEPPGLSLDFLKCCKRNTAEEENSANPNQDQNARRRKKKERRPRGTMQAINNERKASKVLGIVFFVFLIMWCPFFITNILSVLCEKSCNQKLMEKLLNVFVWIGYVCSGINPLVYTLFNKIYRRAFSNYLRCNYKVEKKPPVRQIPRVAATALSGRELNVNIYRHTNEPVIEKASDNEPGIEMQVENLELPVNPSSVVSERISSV
Kind of data set: Activity at the 5-HT-IC receptor. It is filed as binding.
Text: as §1

The test system of data set [2] is rats. Kind of data set: Catalepsy induction in rats. The class given is in vivo. As to conditions: at the low dose inhibiting conditioned avoidance response.

A value given as a limit tells only on which side of the number the result lay.

T1 sequence (P14842 whole entry): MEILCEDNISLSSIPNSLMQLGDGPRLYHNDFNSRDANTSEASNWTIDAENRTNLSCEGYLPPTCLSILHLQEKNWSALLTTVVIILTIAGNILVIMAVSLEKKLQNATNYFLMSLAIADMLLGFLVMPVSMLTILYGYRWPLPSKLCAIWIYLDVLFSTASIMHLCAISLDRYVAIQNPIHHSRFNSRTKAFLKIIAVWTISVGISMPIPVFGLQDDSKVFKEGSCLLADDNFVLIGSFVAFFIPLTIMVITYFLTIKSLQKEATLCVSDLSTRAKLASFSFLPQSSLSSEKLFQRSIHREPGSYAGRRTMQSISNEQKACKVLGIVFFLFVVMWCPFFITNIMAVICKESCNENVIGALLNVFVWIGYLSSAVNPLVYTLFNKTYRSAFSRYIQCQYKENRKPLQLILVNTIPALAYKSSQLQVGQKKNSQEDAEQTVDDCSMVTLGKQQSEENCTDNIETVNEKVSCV
Sequence of dopamine D-2 receptor (P14416 whole entry): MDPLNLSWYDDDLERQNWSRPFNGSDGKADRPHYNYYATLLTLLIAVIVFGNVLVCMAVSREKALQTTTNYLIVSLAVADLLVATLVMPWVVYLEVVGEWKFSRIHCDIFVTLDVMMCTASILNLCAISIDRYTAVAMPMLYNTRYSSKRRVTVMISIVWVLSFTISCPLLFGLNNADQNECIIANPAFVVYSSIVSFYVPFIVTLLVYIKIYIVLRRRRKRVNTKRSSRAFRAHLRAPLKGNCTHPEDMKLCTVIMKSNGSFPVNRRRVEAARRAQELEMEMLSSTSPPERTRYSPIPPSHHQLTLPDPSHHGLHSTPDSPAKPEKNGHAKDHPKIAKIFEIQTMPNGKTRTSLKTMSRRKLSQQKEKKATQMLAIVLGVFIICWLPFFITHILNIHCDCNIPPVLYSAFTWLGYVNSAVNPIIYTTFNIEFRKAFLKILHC

For orientation: ED50 means the midpoint of the dose-response relation. Usually IC50 stands for the concentration that gives 50% inhibition. A higher IC50 goes with a need for much substance. Consider `Cc1cc2c(s1)Nc1ccccc1N=C2N1CC[N+](C)(CCl)CC1` [formula I, 2-methyl-4-(4-methyl-4-chloromethyl-1-piperazinyl)-10H-thieno-[2,3-b][1,5]-benzodiazepine], for which the 50% effective dose (ED50) in the data set on rats [1] is around 5 mg/kg. Also, the “Concentration displacing H-spiperone at the 5-HT-2 receptor” value on 5-HT-2 receptor was “low nanomolar concentrations”. On dopamine D-2 receptor, this compound displayed an IC50 below 1000 nM. Further, the “Activity at the 5-HT-IC receptor” value at 5-HT-IC receptor is on record as “active”. The Catalepsy result with rats [2] was “without inducing catalepsy”.
The corresponding values for `CC(=O)N1CCN(C2=Nc3ccccc3Nc3sc(C)cc32)CC1` [formula II, 2-methyl-4-(4-acetyl-1-piperazinyl)-10H-thieno-[2,3-b][1,5]-benzodiazepine] are around 5 mg/kg, “low nanomolar concentrations”, below 1000 nM, “active” and “without inducing catalepsy”.

For the origin of these results see patent US20090221560A1, “Pharmaceutical Formulation” (priority 2005, published 2009).
